We go through two compounds from patent US4549023A, “3-Aminoindazole derivatives” (priority 1980, dated 1985).

The subject of data set [1] is carrageenin edema in rat's paw. In words: Carrageenin Edema Test in Rat's Paw (anti-inflammatory activity). Type of data set: in vivo, Female Wistar rats. The settings on record: for inhibition in vivo at 100 mg/kg: Rattus norvegicus, hydrochloric acid salts. As for the experimental part:
A standard method of Carrageenin Edema Test in Rat's Paw described in C. A. Winter et al., Proc. Soc. Exp. Biol. Med., 111, 544 (1962) was employed.
[…] One hour later, the pad of a hind paw of the rat was injected with 0.1 ml of 1% aqueous carrageenin solution. The volume of the paw was measured both before the injection of carrageenin and three hours after the injection.
The edema inhibition percentage of the test compound was calculated from the ratio of the increase in the volume of the affected paw of the test animals to the increase in the volume of the affected paw of the controls.
The anti-inflammatory activity of the 3-aminoindazole derivative hydrochloric acid salts of this invention was measured.
The anti-inflammatory activity of the 3-aminoindazole derivative hydrochloric acid salts obtained by Examples 1-49 of this invention was measured by the standard method of carrageenin edema test. In these tests, the amount of the administration of the salts was 100 mg/kg. The results are shown in Table 17 (Inhibition (%) was measured three hours after the injection).

The nature of data set [2]: Acute toxicity (LD50), intravenous injection. The settings on record: mouse, in vivo, male ddY-strain mice, read-out: LD50, Table 19. As for the experimental part: Acute toxicity was measured by an ordinary method described in Finney DJ Probit Analysis Cambridge University Press 48, (1952). Ddy mice weighing about 18 g on average, each group consisting of 10 animals, were […] injected with the physiological salt solution containing the test compound. The amount of the test compound administered was varied in 5-8 groups. Three days after the administration, dead animals were counted in each group. The amount of the test compound killing half the number of the animals (LD50) was calculated from the results.
The acute toxicity of the 3-aminoindazole derivatives and their hydrochloric acid salts obtained by Examples 1-49 of this invention was measured by giving male ddY-strain mice an intravenous injection.

Data set [3] relates to acetic acid-induced writhing in mice. Kind of data set: Acetic Acid-Writhing Test (analgesic activity). Type of data set: in vivo, Male ddy-strain mice. As to conditions: 100 mg/kg, oral, hydrochloric acid salts. As for the experimental part: Acetic acid-writhing test was carried out according to Koster et al., Fed. Proc., 18, 412 (1959). […] Thirty minutes later, the mice were intraperitoneally injected with 0.1 ml/10 g of 0.7% acetic acid physiological salt solution as a stimulant. Ten minutes after the stimulant injection, writhing frequency as pain response was observed and recorded over 10 minutes.
The inhibition percentage of the test compound was represented as the ratio of the inhibition of the writhing frequency.
Analgesic activity of 3-aminoindazole derivative hydrochloric acid salts was measured by acetic acid-writhing test.

The test system of data set [4] is carrageenin-inflamed hind paw of the rat (pressure pain). In words: Randall-Selitto Test (analgesic activity). It is filed as in vivo, Female wister rats. As to conditions: 100 mg/kg, hydrochloric acid salts; water 0.8. As for the experimental part: The Randall-Selitto analgesic activity test was carried out according to the general method described in J. O. Randall & J. J. Selitto, Arch. Int. Pharmacodyn, 111, 409 (1957). Female wister rats weighing 120-150 g were orally administered 50 mg/kg of the test compound as an aqueous solution. Thirty minutes later, the pad of a hind paw of the rat was injected with 0.1 ml of 1% aqueous carrageenin solution. Pressure was applied to the paw where edema was formed by Balance-type Pressure Device (Ugo Basile Company; Italy) 1, 2, 3 and 4 hours after the injection. The weight when the test animals began to struggle with pain was measured. The analgesic activity is represented by an analgesic coefficient which is obtained by dividing the average weight measured 1.5, 2.5, 3.5 and 4.5 hours after the administration by the applied weight prior to the administration.
The analgesic activity of the 3-aminoindazole derivative hydrochloric acid salts obtained by Examples 2, 6, 10, 18, 22 and 28 of this invention was measured by the standard method of Randall-Selitto test. In these tests, the amount of the administration of the salts was 100 mg/kg.

The test system of data set [5] is gastric ulcer caused by indomethacin. As to conditions: 100 mg/kg compound together with 10 mg/kg of indomethacin. As for the experimental part:
The test compound was suspended in 1% HCO-60 (trade name for polyoxyethylene hydrogenated castor oil; a product of Nikko Chemical Co., Ltd., Japan) at the concentration of 10 mg/ml. Male donryu rats weighing 150-160 g were orally administered 100 mg/kg of the test compound. The occurrence of gastric ulcer was examined 24 hours after the administration.
It is well known that the single use of acidic non-steroidal anti-inflammatory drugs causes a side effect in digestive tracts such as gastric ulcer.

The test system of a further data set is gastric ulcer in rats. In words: Anti-Ulcer Test: occurrence of gastric ulcer by test compound alone. Type of data set: in vivo, Male donryu rats. How it is done: Ulcer inhibition of 3-(3-diethylaminopropylamino)indazole (10) and 1-(3-piperidinopropyl)-3-aminoindazole (18), typical and preferred compounds of this invention, was measured.
Another data set concerns primary inflammation. The settings on record: Silvest et al., Arzneim-Forsch, 16, 59 (1966); cited from earlier work.

Structures are written as SMILES. Read-outs that look alike come from different tables or passages of the source.

A word on the LD50: it is the dose at which mortality reaches 50%. For the compound `Nc1nn(CCCN2CCCCC2)c2ccccc12` [Compound (18), 1-(3-piperidinopropyl)-3-aminoindazole], the inhibition in vivo at 100 mg/kg in data set [1] (po, 3 h, 100 mg/kg, measured three hours after the injection, read-out: Inhibition (carrageenin edema), Table 17) was 54%; in data set [1] (100 mg/kg, oral, 3 h after carrageenin, read-out: Inhibition (carrageenin edema), Table 1), 54%. Further, the “Inhibition values compared with comparative compounds” value in data set [1] (Table 1, 100 mg/kg) was “higher than those of the compounds C-2 and C-3”. The LD50 at 72 h in data set [2] worked out at 102 mg/kg. In addition, the “Inhibition (acetic acid-writhing), Table 3” value in data set [3] stood at 43%. The “Analgesic Coefficient, Table 18” value in data set [4] was 1.38. In addition, the “Occurrence frequency in combination” value in data set [5] is given as “not changed”. Moreover, the “Ulcer index in combination” value in data set [5] is 2.5 mm. Also, the Gastric ulcer occurrence entry is on record as “Gastric ulcer did not occur” with gastric ulcer in rats (100 mg/kg singly administered at one time, oral) and “gastric ulcer did not occur” in the data set with gastric ulcer in rats (administered for 5 days).

With `CN(C)CCCOc1nn(Cc2ccccc2)c2ccccc12` [Compound C-4, 1-benzyl-3-(3-dimethylaminopropoxy)indazole, reference compound], the “Inhibition (carrageenin edema), Table 2” value amounted to 8% in data set [1] (25 mg/kg, oral); 20% in data set [1] (50 mg/kg, oral); 51% in data set [1] (100 mg/kg, oral). Besides, the “Effect against primary inflammation” value in the data set on primary inflammation is on record as “effective against primary inflammation”.
